Results reported in patent US20200060994A1, “METHODS OF TREATING PSYCHIATRIC STRESS DISORDERS” (Yeda Research and Development Co. Ltd., priority 2017, published 2020).
“Also recorded” adds a separate entry of the source. Counter-ions that a name gives are not always drawn.

Assays:
[1] = test system: importin α5 KO mice; assay: Open field (OF) test, importin α5 KO mice; format: in vivo, mouse; conditions: FG-7142 5 mg/kg intraperitoneally, OF after 30 min
Protocol: (§1) All drugs were administered by intraperitoneal injection (I.P.). […] A. CNS Drug Rev.

[2] = test system: wild type C57BL6 mice; assay: Open field (OF) test, wild type mice; conditions: for anxiolytic properties / behavior in the OF test: 1 hour following i.p. injection vs vehicle, Sitosterol 100 mg/kg, Alvespimycin 75 mg/kg, Fluspirilene 10 mg/kg; for number of rearings in the OF center: larger cohort n=10 mice per group, P<0.01
[3] = test system: wild type C57BL6 mice; assay: Elevated plus maze (EPM) test, wild type mice; format: in vivo, mouse
Protocol: as §1
(§2) The EPM contains two open arms and two enclosed ones connected by a central square. Exploration on the open arms is reduced in high anxiety states while it is increased in low anxiety states [Walf, A. A. & Frye, C. A. Nat. Protoc. 2, 322-8 (2007)]. Mice were placed on the central platform facing one of the “open” arms to initiate a 5-minutes test session and the time spent in each arm was measured. The test was performed under 7 lx and 65 dB white noise. The number of entries into, the time spent/distance on the open arms and the percentage of the open arm entries compared with total number of arm entries were recorded using the VideoMot2 software (TSE System, Germany) or the Ethovision XT11 software (Noldus Information Technology, The Netherlands).

[4] = test system: importin α5 KO mice; assay: Elevated plus maze (EPM) test, importin α5 KO mice; format: in vivo, mouse; conditions: PF-543 10 mg/kg i.p.
Protocol: as §1, §2

[5] = β-sitosterol 100 mg/kg, 1 hour following injection, vs vehicle
[6] = β-sitosterol 100 mg/kg IP, 1 and 6 hours following injection, vs vehicle
[7] = S1P receptor agonist 0.1 mg/kg i.p., C57BL6, vs vehicle
[8] = S1P receptor agonist 0.1 mg/kg i.p., C57Bl6

CNC(=O)c1cc2c(cn1)[nH]c1ccccc12 [FG-7142]
distance travelled in the center of the OF [1]: significantly decreases
number of rearing events in the center [1]: significantly decreases
anxiolytic phenotype of importin α5 KO mice in the OF test ([1]; 5 mg/kg): reversed anxiolysis

CO[C@H]1/C=C\C=C(/C)C(=O)NC2=CC(=O)C(NCCN(C)C)=C(C[C@@H](C)C[C@H](OC)[C@H](O)[C@@H](C)/C=C(\C)[C@@H]1OC(N)=O)C2=O [alvespimycin]
anxiolytic properties / behavior in the OF test [2]: marked yet variable differences; also recorded: anxiolytic effect
rearing activity in the center ([2]; alvespimycin 75 mg/kg i.p., 1 hour, single dosage regime, FIG. 12A): reaching statistical significance
motor performances in the OF test ([2]; alvespimycin, independent cohort n=10, FIG. 12B): without adverse effects
number of rearings in the OF center ([2]; alvespimycin, FIG. 12B): 6.2±2.07
number of rearings in the OF center ([2]; alvespimycin, FIG. 12B, listed as Alvespimycin): increase
time spent in the center area ([2]; alvespimycin, n=10 per group, FIG. 12B, P=0.052): increased
latency to access the center area ([2]; alvespimycin, n=10 per group, FIG. 12B, P=0.08): increased
number of visit in the center area ([2]; alvespimycin, n=10 per group, FIG. 12B, P=0.09): increased

CNCCC(Oc1ccc(C(F)(F)F)cc1)c1ccccc1 (stereo not drawn) [fluoxetine, Fluoxetine hydrochloride]
anxiolytic effect in the OF test, dose-response ([2]; fluoxetine 2, 5, 10 or 20 mg/kg vs vehicle, 10 minutes OF test): dose dependent anxiolytic effect
anxiolytic effects in the OF test ([2]; fluoxetine doses of 5 mg/kg and below): no apparent effect
anxiolytic effects in the OF test ([2]; fluoxetine doses of 10 mg/kg and above): significant anxiolytic effects

CC[C@H](CC[C@@H](C)[C@H]1CC[C@H]2[C@@H]3CC=C4C[C@@H](O)CC[C@]4(C)[C@H]3CC[C@]12C)C(C)C [β-sitosterol]
distance in the open arms of the EPM [3, 5]: significant increase
time spent in the open arms of the EPM [3, 5]: significant increase
anxiolytic properties / behavior in the OF test [2]: anxiolytic effect
distance travelled in the OF center [2, 6]: increasing
number of visits in the OF center [2, 6]: increasing
time course of anxiolytic effects in the OF test ([2]; β-sitosterol by injection): apparent 1 hour post-injection and persisted until 6 hours following injection
anxiolytic effect in the OF test, dose response ([2]; β-sitosterol intraperitoneally at the indicated doses, 1 hour following injection): clear dose-dependent anxiolytic effects; also recorded: reaching significance for the highest dose tested

CCc1cc(/C(C)=N/OCc2ccc(C3CCCCC3)c(C(F)(F)F)c2)ccc1CN1CC(C(=O)O)C1 [siponimod]
time spent in the open arms of the EPM [3, 7]: significant increase
anxiety levels in the EPM assay [3, 8]: markedly reduced
distance in the open arms of the EPM ([3]; siponimod 0.1 mg/kg i.p. every 3 days during 4 weeks, vs vehicle): significant increase
distance travelled in the center of the OF [2, 7]: significant increase
time spent in the center of the OF [2, 7]: significant increase
anxiety levels in the OF assay [2, 8]: markedly reduced
center/border ratio (for the exploration time) in the OF ([2]; siponimod 0.1 mg/kg i.p. every 3 days during 4 weeks, vs saline): higher

O=C1NCN(c2ccccc2)C12CCN(CCCC(c1ccc(F)cc1)c1ccc(F)cc1)CC2 [fluspirilene]
anxiolytic properties / behavior in the OF test [2]: anxiolytic effect

Cc1cc(CS(=O)(=O)c2ccccc2)cc(OCc2ccc(CN3CCC[C@@H]3CO)cc2)c1 [PF-543]
anxiety-related behavior of WT mice in the EPM ([3]; PF-543 10 mg/kg i.p., WT mice): did not influence
distance travelled in the open arms ([4]; importin α5 KO animals): significantly decreased
time spent in the open arms ([4]; importin α5 KO animals): significantly decreased
anxiolytic phenotype of importin α5 KO mice in the EPM ([4]; 10 mg/kg): attenuated; also recorded: reverse the anxiolytic response of importin α5 KOs towards WT values
